pIC50: −log10 of the molar value.
Molecular target: T1, IKK-complex (Homo sapiens, UniProt O14920+O15111+Q9Y6K9)
T1 construct: IKK-complex was immunoprecipitated with anti-NEMO-antibody; endogenous in cells; host or cells: HeLa
Experiment: Cellular IKK kinase assay: HeLa cells treated with compound, TNF alpha stimulation, IKK-complex immunoprecipitated with anti-NEMO-antibody, I kappaB peptide phosphorylation by alpha screen
Format: cell-based
Method: Kinase Assay Protocol: HeLa cells were maintained in Dulbecco's modified Eagle's medium (Invitrogen) supplemented with 10% fetal bovine serum, 2 mM L-glutamine, penicillin (50 units/ml) and streptomycin (50 μg/ml). 24 h before treatment with different compounds HeLa cells were plated at a density of 5×10^6 per well in 100-mm cell culture dishes to 90% confluences.
The cells were incubated with different drugs at the concentration indicated for 1 h, washed twice with PBS and stimulated with 20 ng/ml TNF alpha (Roche). After 7 min the cells were washed twice with ice cold PBS followed by scraping and transferring into a 1.5 ml microcentrifuge tube. After centrifugation by 2000 rpm for 2 min by 4° C. the PBS supernatant was removed and 200 μl Lyse-buffer (10 mM Hepes, pH 7.9, 0.1% NP40, 10 mM, 300 mM Sucrose, 10 mM KCl, 15 mM MgCl2, 1 mM DTT, 0.5 mM PMSF and antipain, aprotinin, leupeptin each 0.75 μg/ml (Sigma) was added to the pellet. The resuspended pellet was incubated on ice for 5 min and centrifuged at 13000 g for 30 s. The supernatant, cytosolic extract, was added to 200 μl TNT-buffer (200 mM NaCl, 20 mM Tris/HCl pH 7.5, 1% Triton X-100). Unspecific binding was blocked by incubation with 3 μg of normal rabbit IgG (Sigma) and 6 mg resuspended and prewashed Protein A Sepharose CI-4B (Pharmacia Biotech) for 30 min by 4° C. followed by immunoprecipitation for 1.5 h at 4° C. with 2 μg of anti-NEMO-antibody (Santa Cruz Biotechnology) and 6 mg resuspented and prewashed Protein A Sepharose CI-4B (Parmacia Biotech). […] 6.6 μl of detection-buffer (20 mM Hepes pH 7.5, 100 mM NaCl, 1% Tween, 0.1 mM BSA, 50 μg/ml Protein A-Acceptor beads, 250 μg/ml Streptavidin-Donor beads (both Perkin-Elmer), 4 nM anti-phospho-IKB antibody (Santa Cruz Biotechnology) was dispensed to each well. After incubation for 1.5 h the plate was measured by alpha screen reader (Perkin Elmer). […]

T1 sequence (O14920 whole entry): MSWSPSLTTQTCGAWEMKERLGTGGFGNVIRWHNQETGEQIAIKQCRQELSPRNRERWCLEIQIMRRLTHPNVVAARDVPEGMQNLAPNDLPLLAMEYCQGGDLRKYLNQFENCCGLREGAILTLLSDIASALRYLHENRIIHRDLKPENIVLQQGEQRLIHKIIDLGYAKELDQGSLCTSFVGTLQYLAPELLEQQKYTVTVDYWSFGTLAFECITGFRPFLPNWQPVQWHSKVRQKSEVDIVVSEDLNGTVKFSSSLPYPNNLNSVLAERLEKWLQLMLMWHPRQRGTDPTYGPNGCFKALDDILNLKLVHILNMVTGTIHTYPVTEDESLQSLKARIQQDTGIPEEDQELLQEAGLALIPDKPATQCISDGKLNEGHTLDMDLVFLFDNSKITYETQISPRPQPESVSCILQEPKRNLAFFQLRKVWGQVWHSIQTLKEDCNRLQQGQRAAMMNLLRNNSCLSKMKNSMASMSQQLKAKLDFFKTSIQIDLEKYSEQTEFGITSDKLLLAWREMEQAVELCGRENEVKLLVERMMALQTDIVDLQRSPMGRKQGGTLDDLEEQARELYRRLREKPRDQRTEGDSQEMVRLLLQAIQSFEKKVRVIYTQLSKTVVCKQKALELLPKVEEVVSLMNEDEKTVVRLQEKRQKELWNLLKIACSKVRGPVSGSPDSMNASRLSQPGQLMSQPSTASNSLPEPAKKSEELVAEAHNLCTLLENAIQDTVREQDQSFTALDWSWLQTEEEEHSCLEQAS
T1 sequence (O15111 whole entry): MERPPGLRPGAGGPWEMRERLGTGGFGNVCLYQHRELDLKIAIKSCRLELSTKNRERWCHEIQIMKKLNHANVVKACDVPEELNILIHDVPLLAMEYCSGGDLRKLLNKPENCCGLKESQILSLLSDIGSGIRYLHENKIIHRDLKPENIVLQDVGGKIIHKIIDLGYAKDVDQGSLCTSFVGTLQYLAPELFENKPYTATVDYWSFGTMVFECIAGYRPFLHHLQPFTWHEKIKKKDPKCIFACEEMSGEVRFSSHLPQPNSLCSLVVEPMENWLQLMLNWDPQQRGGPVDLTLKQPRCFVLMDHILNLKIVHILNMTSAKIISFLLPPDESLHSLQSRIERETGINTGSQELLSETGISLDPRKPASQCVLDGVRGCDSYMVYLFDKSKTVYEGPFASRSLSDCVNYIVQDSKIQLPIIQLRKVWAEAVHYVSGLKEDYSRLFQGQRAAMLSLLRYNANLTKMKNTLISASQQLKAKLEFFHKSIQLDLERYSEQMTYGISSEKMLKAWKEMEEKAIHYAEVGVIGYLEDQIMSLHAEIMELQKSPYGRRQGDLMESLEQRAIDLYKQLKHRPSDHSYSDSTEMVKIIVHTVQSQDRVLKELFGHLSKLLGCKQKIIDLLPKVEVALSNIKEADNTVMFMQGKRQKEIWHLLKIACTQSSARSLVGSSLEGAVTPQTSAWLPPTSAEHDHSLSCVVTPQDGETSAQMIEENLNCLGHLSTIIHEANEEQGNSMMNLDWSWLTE
T1 sequence (Q9Y6K9 whole entry): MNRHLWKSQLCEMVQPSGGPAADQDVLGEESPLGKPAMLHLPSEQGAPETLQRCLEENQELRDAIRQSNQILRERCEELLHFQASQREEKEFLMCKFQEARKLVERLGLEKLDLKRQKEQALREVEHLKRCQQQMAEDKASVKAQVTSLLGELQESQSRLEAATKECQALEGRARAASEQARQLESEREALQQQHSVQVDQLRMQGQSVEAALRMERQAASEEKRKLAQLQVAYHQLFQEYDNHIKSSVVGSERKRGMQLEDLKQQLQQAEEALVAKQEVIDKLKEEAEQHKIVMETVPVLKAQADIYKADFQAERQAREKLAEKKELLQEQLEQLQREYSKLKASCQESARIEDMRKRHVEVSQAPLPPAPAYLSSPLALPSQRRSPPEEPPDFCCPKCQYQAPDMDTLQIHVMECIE

**Q.** How did the pIC50 (HeLa cells, TNF alpha 20 ng/ml, alpha screen, n=4, read-out: IC50 for inhibition of IKK activity (phosphorylation of substrate peptide for I KappaB)) turn out when `CCOC(=O)C1=C(C)N=c2s/c(=C/c3ccc(-c4cccc(C(=O)O)c4)o3)c(=O)n2C1c1ccc(Cl)cc1` (centres unmarked) [COM 56, 2-[5-(3-Carboxyphenyl)-furan-2-ylmethylene]-5-(4-chlorophenyl)-7-methyl-3-oxo-2,3-dihydro-5H-thiazolo[3,2-a]pyrimidine-6-carboxylic acid ethyl ester] was run?
**A.** ~6.07

**Q.** What about the “potency to inhibit the IKK activity, higher than the other 73 family members” value (cellular assay with HeLa cells) of the same molecule?
**A.** 10 times

From patent US20060194819A1, “Activation specific inhibitors of nf-kb and method of treating inflammatory processes in cardio-vascular diseases” (PROCORDE GMBH, priority 2003, published 2006)
